# Reference: a compilation of properties of binary mixtures (doi:10.1021/acs.jpcc.8b05193)
# Assay: xn = mol fraction of the nth substance listed
# Details: 100 kPa
compound,measurement,setting,value
O=S(=O)([N-]S(=O)(=O)C(F)(F)F)C(F)(F)F.[Li+] + O,electrical conductivity,"260.73 K, x2 = 0.7857",0.407 S/m
same,electrical conductivity,"261.98 K, x2 = 0.8065",0.617 S/m
same,electrical conductivity,"262.18 K, x2 = 0.8855",1.33 S/m
same,electrical conductivity,"262.4 K, x2 = 0.9148",1.46 S/m
same,electrical conductivity,"262.6 K, x2 = 0.8271",0.808 S/m
same,electrical conductivity,"262.82 K, x2 = 0.8495",1.04 S/m
same,electrical conductivity,"265.92 K, x2 = 0.7857",0.55 S/m
same,electrical conductivity,"266.56 K, x2 = 0.8065",0.767 S/m
same,electrical conductivity,"266.96 K, x2 = 0.8495",1.25 S/m
same,electrical conductivity,"266.96 K, x2 = 0.9761",1.36 S/m
same,electrical conductivity,"267.38 K, x2 = 0.8855",1.66 S/m
same,electrical conductivity,"267.6 K, x2 = 0.9148",1.86 S/m
same,electrical conductivity,"270.7 K, x2 = 0.7857",0.684 S/m
same,electrical conductivity,"271.54 K, x2 = 0.8065",0.966 S/m
same,electrical conductivity,"271.96 K, x2 = 0.9761",1.73 S/m
same,electrical conductivity,"272.15 K, x2 = 0.8271",1.21 S/m
same,electrical conductivity,"272.6 K, x2 = 0.9148",2.27 S/m
same,electrical conductivity,"273.4 K, x2 = 0.7538",0.461 S/m
same,electrical conductivity,"273.4 K, x2 = 0.8495",1.62 S/m
same,electrical conductivity,"275.7 K, x2 = 0.7857",0.843 S/m
same,electrical conductivity,"277.15 K, x1 = 0.0039",0.623 S/m
same,electrical conductivity,"277.35 K, x2 = 0.8065",1.16 S/m
same,electrical conductivity,"277.35 K, x2 = 0.8855",2.54 S/m
same,electrical conductivity,"277.35 K, x2 = 0.9761",2.06 S/m
same,electrical conductivity,"277.55 K, x2 = 0.8271",1.51 S/m
same,electrical conductivity,"277.97 K, x2 = 0.7538",0.579 S/m
same,electrical conductivity,"277.97 K, x2 = 0.9148",2.88 S/m
same,electrical conductivity,"278.19 K, x2 = 0.8495",1.94 S/m
same,electrical conductivity,"280.67 K, x2 = 0.7857",1.06 S/m
same,electrical conductivity,"281.51 K, x2 = 0.8271",1.8 S/m
same,electrical conductivity,"281.93 K, x2 = 0.8855",2.94 S/m
same,electrical conductivity,"282.13 K, x2 = 0.9761",2.49 S/m
same,electrical conductivity,"282.32 K, x1 = 0.0039",0.736 S/m
same,electrical conductivity,"282.32 K, x2 = 0.8065",1.43 S/m
same,electrical conductivity,"282.55 K, x2 = 0.9148",3.3 S/m
same,electrical conductivity,"282.74 K, x2 = 0.8495",2.22 S/m
same,electrical conductivity,"285.45 K, x2 = 0.7857",1.23 S/m
same,electrical conductivity,"286.71 K, x2 = 0.9148",3.94 S/m
same,electrical conductivity,"286.9 K, x2 = 0.8271",2.11 S/m
same,electrical conductivity,"287.1 K, x2 = 0.8065",1.66 S/m
same,electrical conductivity,"287.32 K, x2 = 0.8855",3.47 S/m
same,electrical conductivity,"287.52 K, x2 = 0.9761",2.94 S/m
same,electrical conductivity,"287.94 K, x2 = 0.8495",2.65 S/m
same,electrical conductivity,"291.06 K, x2 = 0.7857",1.46 S/m
same,electrical conductivity,"291.46 K, x2 = 0.8271",2.41 S/m
same,electrical conductivity,"291.88 K, x2 = 0.8855",3.98 S/m
same,electrical conductivity,"292.1 K, x2 = 0.9761",3.33 S/m
same,electrical conductivity,"292.52 K, x2 = 0.7538",1.02 S/m
same,electrical conductivity,"292.71 K, x2 = 0.9148",4.51 S/m
same,electrical conductivity,"293.13 K, x2 = 0.8495",3.17 S/m
same,electrical conductivity,"295.84 K, x2 = 0.7857",1.71 S/m
same,electrical conductivity,"296.88 K, x2 = 0.6988",0.538 S/m
same,electrical conductivity,"296.88 K, x2 = 0.9761",3.81 S/m
same,electrical conductivity,"297.29 K, x2 = 0.8065",2.22 S/m
same,electrical conductivity,"297.29 K, x2 = 0.8855",4.65 S/m
same,electrical conductivity,"297.49 K, x2 = 0.7538",1.19 S/m
same,electrical conductivity,"297.49 K, x2 = 0.8495",3.51 S/m
same,electrical conductivity,"297.49 K, x2 = 0.9148",5.33 S/m
same,electrical conductivity,"298.11 K, x1 = 0.0039",1.07 S/m
same,electrical conductivity,"300.4 K, x2 = 0.7857",1.96 S/m
same,electrical conductivity,"302.47 K, x1 = 0.0039",1.21 S/m
same,electrical conductivity,"302.47 K, x2 = 0.6988",0.636 S/m
same,electrical conductivity,"302.47 K, x2 = 0.8855",5.16 S/m
same,electrical conductivity,"302.69 K, x2 = 0.9761",4.37 S/m
same,electrical conductivity,"303.11 K, x2 = 0.8065",2.62 S/m
same,electrical conductivity,"305.59 K, x2 = 0.7857",2.24 S/m
same,electrical conductivity,"307.05 K, x2 = 0.8855",5.67 S/m
same,electrical conductivity,"307.05 K, x2 = 0.9148",6.42 S/m
same,electrical conductivity,"307.24 K, x2 = 0.6988",0.767 S/m
same,electrical conductivity,"307.46 K, x1 = 0.0039",1.35 S/m
same,electrical conductivity,"307.46 K, x2 = 0.8271",3.62 S/m
same,electrical conductivity,"307.46 K, x2 = 0.8495",4.46 S/m
same,electrical conductivity,"310.79 K, x2 = 0.7857",2.57 S/m
same,electrical conductivity,"312.02 K, x2 = 0.9761",5.38 S/m
same,electrical conductivity,"312.24 K, x2 = 0.7538",1.8 S/m
same,electrical conductivity,"312.24 K, x2 = 0.8271",4.02 S/m
same,electrical conductivity,"312.24 K, x2 = 0.8495",4.95 S/m
same,electrical conductivity,"312.66 K, x1 = 0.0039",1.51 S/m
same,electrical conductivity,"312.66 K, x2 = 0.8855",6.42 S/m
same,electrical conductivity,"312.66 K, x2 = 0.9148",7.28 S/m
same,electrical conductivity,"313.05 K, x2 = 0.6601",0.528 S/m
same,electrical conductivity,"316.6 K, x1 = 0.0039",1.62 S/m
same,electrical conductivity,"316.8 K, x2 = 0.8855",7.06 S/m
same,electrical conductivity,"317.02 K, x2 = 0.8065",3.59 S/m
same,electrical conductivity,"317.21 K, x2 = 0.9761",5.97 S/m
same,electrical conductivity,"317.41 K, x2 = 0.9148",8.07 S/m
same,electrical conductivity,"317.63 K, x2 = 0.6601",0.604 S/m
same,electrical conductivity,"317.83 K, x2 = 0.7538",2.06 S/m
same,electrical conductivity,"321.79 K, x2 = 0.8065",3.94 S/m
same,electrical conductivity,"321.79 K, x2 = 0.8855",7.59 S/m
same,electrical conductivity,"321.99 K, x1 = 0.0039",1.78 S/m
same,electrical conductivity,"322.19 K, x2 = 0.8271",4.85 S/m
same,electrical conductivity,"322.41 K, x2 = 0.9148",8.69 S/m
same,electrical conductivity,"322.61 K, x2 = 0.8495",6.03 S/m
same,electrical conductivity,"322.83 K, x2 = 0.6601",0.692 S/m
same,electrical conductivity,"323.03 K, x2 = 0.6988",1.18 S/m
same,electrical conductivity,"326.35 K, x2 = 0.7857",3.51 S/m
same,electrical conductivity,"326.77 K, x1 = 0.0039",1.92 S/m
same,electrical conductivity,"326.97 K, x2 = 0.8855",8.33 S/m
same,electrical conductivity,"327.19 K, x2 = 0.7538",2.52 S/m
same,electrical conductivity,"327.19 K, x2 = 0.9148",9.45 S/m
same,electrical conductivity,"327.38 K, x2 = 0.9761",7.13 S/m
same,electrical conductivity,"327.8 K, x2 = 0.8495",6.49 S/m
same,electrical conductivity,"328.02 K, x2 = 0.8065",4.56 S/m
same,electrical conductivity,"328.64 K, x2 = 0.6601",0.833 S/m
same,electrical conductivity,"332.16 K, x1 = 0.0039",2.08 S/m
same,electrical conductivity,"332.58 K, x2 = 0.6988",1.52 S/m
same,electrical conductivity,"332.58 K, x2 = 0.9148",10 S/m
same,electrical conductivity,"332.78 K, x2 = 0.9761",7.67 S/m
same,electrical conductivity,"333.42 K, x2 = 0.6601",0.945 S/m
same,electrical conductivity,"336.94 K, x2 = 0.8271",6.35 S/m
same,electrical conductivity,"337.16 K, x1 = 0.0039",2.2 S/m
same,electrical conductivity,"337.36 K, x2 = 0.8065",5.27 S/m
same,electrical conductivity,"337.55 K, x2 = 0.8495",7.59 S/m
same,electrical conductivity,"337.55 K, x2 = 0.9148",10.7 S/m
same,electrical conductivity,"337.78 K, x2 = 0.9761",8.25 S/m
same,electrical conductivity,"337.97 K, x2 = 0.7538",3.13 S/m
same,electrical conductivity,"338.19 K, x2 = 0.6601",1.05 S/m
same,electrical conductivity,"338.19 K, x2 = 0.6988",1.73 S/m
same,electrical conductivity,"342.33 K, x2 = 0.8495",8.16 S/m
same,electrical conductivity,"342.33 K, x2 = 0.9148",11.6 S/m
same,electrical conductivity,"342.55 K, x2 = 0.6988",1.88 S/m
same,electrical conductivity,"342.55 K, x2 = 0.8855",10.4 S/m
same,electrical conductivity,"342.75 K, x2 = 0.9761",8.87 S/m
same,electrical conductivity,"345.65 K, x2 = 0.7857",4.95 S/m
same,electrical conductivity,"347.11 K, x2 = 0.8855",11 S/m
same,electrical conductivity,"347.33 K, x2 = 0.6601",1.35 S/m
same,electrical conductivity,"347.33 K, x2 = 0.8065",6.03 S/m
same,electrical conductivity,"347.33 K, x2 = 0.8271",7.51 S/m
same,electrical conductivity,"347.75 K, x2 = 0.9148",12.5 S/m
same,electrical conductivity,"347.94 K, x2 = 0.7538",3.73 S/m
same,electrical conductivity,"350.43 K, x2 = 0.7857",5.27 S/m
same,electrical conductivity,"352.11 K, x2 = 0.8495",9.06 S/m
same,electrical conductivity,"352.3 K, x1 = 0.0039",2.65 S/m
same,electrical conductivity,"352.52 K, x2 = 0.9148",13 S/m
same,electrical conductivity,"352.72 K, x2 = 0.8271",7.91 S/m
same,electrical conductivity,"352.72 K, x2 = 0.9761",9.74 S/m
same,electrical conductivity,"352.92 K, x2 = 0.6601",1.48 S/m
same,electrical conductivity,"353.14 K, x2 = 0.6988",2.34 S/m
same,electrical conductivity,"353.34 K, x2 = 0.7538",4.02 S/m
same,electrical conductivity,"356.66 K, x2 = 0.8065",6.91 S/m
same,electrical conductivity,"356.88 K, x2 = 0.6988",2.49 S/m
same,electrical conductivity,"357.08 K, x2 = 0.9761",10.3 S/m
same,electrical conductivity,"357.3 K, x2 = 0.8271",8.33 S/m
same,electrical conductivity,"357.3 K, x2 = 0.8495",9.74 S/m
same,electrical conductivity,"357.5 K, x1 = 0.0039",2.85 S/m
same,electrical conductivity,"357.7 K, x2 = 0.6601",1.64 S/m
same,electrical conductivity,"357.92 K, x2 = 0.7538",4.32 S/m
same,electrical conductivity,"359.79 K, x2 = 0.7857",6.03 S/m
same,electrical conductivity,"360.82 K, x2 = 0.8065",7.28 S/m
same,electrical conductivity,"360.82 K, x2 = 0.9761",10.7 S/m
same,electrical conductivity,"361.66 K, x2 = 0.8495",10.3 S/m
same,electrical conductivity,"361.66 K, x2 = 0.8855",13.2 S/m
same,electrical conductivity,"361.86 K, x1 = 0.0039",3.04 S/m
same,electrical conductivity,"362.05 K, x2 = 0.6601",1.82 S/m
same,electrical conductivity,"362.05 K, x2 = 0.8271",8.96 S/m
same,electrical conductivity,"362.47 K, x2 = 0.6988",2.76 S/m
same,electrical conductivity,"363.11 K, x2 = 0.9148",14.5 S/m
same,electrical conductivity,"363.31 K, x2 = 0.7538",4.7 S/m
